In brackets after ≈: the same amount, converted by molar mass. Activity calls are given as the source filed them.

For orientation: MIC means the smallest concentration in the dilution series that meets the test's criterion for growth inhibition. In general, inhibition refers to the change of the read-out against control, counted positive when it falls. By CC50 is commonly meant the concentration that lowers cell viability or growth by half. One may read the GI50 as the concentration giving 50% growth inhibition. Read a low GI50 as more potent growth inhibition.

For data set [1], the system named is Mycobacterium tuberculosis. In words: Antimycobacterial activity against Mycobacterium tuberculosis H37Rv ATCC 27294 by microplate alamar blue assay. In kind it is functional. Background: Alamar Blue is a resazurin reagent that responds to reducing activity.
In data set [2] the test system is Escherichia coli. In words: Antibacterial activity against Escherichia coli SG458 incubated overnight at 37 degC measured after 24 hrs by agar diffusion method. In kind it is functional, organism-based. (In general: Agar diffusion results depend on both activity and mobility in agar.)
Data set [3] relates to Bacillus spizizenii. In words: Antibacterial activity against Bacillus subtilis ATCC 6633 incubated overnight at 37 degC measured after 24 hrs by agar diffusion method. The format is functional, organism-based.
Data set [4] deals with Sporobolomyces salmonicolor. The data set can be described thus: Antifungal activity against Sporobolomyces salmonicolor 549 incubated overnight at 30 degC measured after 24 hrs by agar diffusion method. The format is functional, organism-based.
The subject of data set [5] is Mycolicibacterium smegmatis. The data set can be described thus: Antimycobacterial activity against Mycobacterium smegmatis SG987 incubated overnight at 37 degC measured after 24 hrs by agar diffusion method. The format is functional.
For data set [6], the system named is Mycolicibacterium vaccae. The data set can be described thus: Antimycobacterial activity against Mycobacterium vaccae IMET 10670 incubated overnight at 37 degC measured after 24 hrs by agar diffusion method. The format is functional.
Data set [7] concerns Mycolicibacterium smegmatis. The data set can be described thus: Antimycobacterial activity against Mycobacterium smegmatis SG987 after 48 hrs by resazurin microtiter assay. To be noted: Mycolicibacterium smegmatis, SG987, 48 h; read-out: MIC. The format is functional.
The test system of data set [8] is Mycobacterium tuberculosis. In words: Antimycobacterial activity against Mycobacterium tuberculosis H37Rv after 7 days by BacTiter-Glo microbial cell viability assay. In kind it is functional. The settings on record: Mycobacterium tuberculosis, H37Rv, 168 h; read-out: MIC.
Data set [9] has as its system Mycolicibacterium aurum. In words: Antimycobacterial activity against Mycobacterium aurum SB66 incubated overnight at 37 degC measured after 24 hrs by agar diffusion method. The format is functional.
Data set [10] concerns the target T1, Serine/threonine-protein kinase PknB (Mycobacterium tuberculosis) (UniProt P9WI81).
T1 sequence (whole entry): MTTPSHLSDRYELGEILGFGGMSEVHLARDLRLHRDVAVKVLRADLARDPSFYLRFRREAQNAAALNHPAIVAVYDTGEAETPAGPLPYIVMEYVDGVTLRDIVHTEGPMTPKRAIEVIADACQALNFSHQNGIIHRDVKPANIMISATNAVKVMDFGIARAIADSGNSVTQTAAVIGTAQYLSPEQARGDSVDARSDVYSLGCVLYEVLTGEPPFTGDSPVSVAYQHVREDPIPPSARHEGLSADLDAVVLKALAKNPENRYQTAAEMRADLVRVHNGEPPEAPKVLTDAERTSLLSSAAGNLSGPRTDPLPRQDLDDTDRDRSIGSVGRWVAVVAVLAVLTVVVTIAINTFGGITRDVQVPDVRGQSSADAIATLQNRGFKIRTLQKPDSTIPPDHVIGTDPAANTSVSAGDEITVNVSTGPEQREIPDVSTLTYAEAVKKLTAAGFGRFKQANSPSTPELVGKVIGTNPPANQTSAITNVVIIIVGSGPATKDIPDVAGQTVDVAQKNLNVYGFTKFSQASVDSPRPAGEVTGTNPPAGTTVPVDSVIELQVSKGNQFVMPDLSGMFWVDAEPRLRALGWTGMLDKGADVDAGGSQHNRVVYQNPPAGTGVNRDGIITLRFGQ
In words: Inhibition of Mycobacterium tuberculosis GST-tagged PknB expressed in Escherichia coli assessed as reduction in PknB autophosphorylation at 4.8 uM preincubated for 30 mins followed by [gamma32P]ATP addition measured after 30 mins by scintillation counting method relative to control.

Data set [11] in a line: Cytotoxicity against human HeLa cells assessed as reduction in cell viability after 72 hrs by CellTiter-Blue1 assay. In kind it is cell-based.
Data set [12] is described as follows: Antiproliferative activity against human K562 cells after 72 hrs by CellTiter-Blue1 assay. The format is cell-based.
Data set [13] is described as follows: Antiproliferative activity against HUVEC after 72 hrs by CellTiter-Blue1 assay. In kind it is cell-based. To be noted: human.

Turning to `COC(=O)/C=C/C(=O)c1ccc(OC)cc1`, the lowest concentration to inhibit growth in data set [1] (MIC) was 1.14 µM (≈ 0.251 µg/mL).
With `C[C@H]1OC(=O)CCC(Cc2ccccc2)NC(=O)[C@@H](NC(=O)c2ncccc2O)[C@@H](C)OC1=O` (stereo partly drawn), the outcome in data set [2], in data set [3] and in [4] was inactive. The “diameter of the inhibition zone (DIZ)” value in data set [5] was 17 mm; in [6], 21 - 29 mm; in data set [9], 0 mm. Besides, the values for the minimum inhibitory concentration (MIC) in data set [7] and in data set [8] were 13.7 µM (≈ 6.43 µg/mL) and 8 µM (≈ 3.76 µg/mL), respectively. In addition, the inhibition in [10] was found to be 35%. In addition, the CC50 at 72 h in data set [11] was more than 5 µg/mL. For the same compound, the GI50 at 72 h in [12] and in data set [13] was more than 5 µg/mL throughout.

Values taken from ChEMBL document CHEMBL4219252, “Synthesis, antimycobacterial activity and influence on mycobacterial InhA and PknB of 12-membered cyclodepsipeptides” (Bioorg Med Chem, 2018).
